Laboratory results from patent US8221737B2, “Hepatitis C virus inhibitors” (Enanta Pharmaceuticals, Inc., priority 2009, dated 2012).

System: HCV 1b genotype replicon
Assay: HCV replicon assay - qRT-PCR (HCV RNA detection)
Type: cell-based
Details: Hepatitis C virus, from the qRT-PCR or luciferase assay (not specified which), EC50 range class
From the text: HCV replicon cell lines (kindly provided by R. Bartenschlager) isolated from colonies as described by Lohman et. al. (Lohman et al. (1999) Science 285: 110-113, expressly incorporated by reference in its entirety) and used for all experiments. The HCV replicon has the nucleic acid sequence set forth in EMBL Accession No.: AJ242651, the coding sequence of which is from nucleotides 1801 to 8406.
The coding sequence of the published HCV replicon was synthesized and subsequently assembled in a modified plasmid pBR322 (Promega, Madison, Wis.) using standard molecular biology techniques. One replicon cell line (“SGR 11-7”) stably expresses HCV replicon RNA which consists of (i) the HCV 5′UTR fused to the first 12 amino acids of the capsid protein, (ii) the neomycin phosphotransferase gene (neo), (iii) the IRES from encephalomyocarditis virus (EMCV), and (iv) HCV NS2 to NS5B genes and the HCV 3′UTR. Another replicon cell line (“Huh-luc/neo-ET”) described by Vrolijk et. al. (Vrolijk et. al. (2003) Journal of Virological Methods 110:201-209, expressly incorporated by reference in its entirety) stably expresses HCV replicon RNA which consists of (i) the HCV 5′UTR fused to the first 12 amino acids of the capsid protein, (ii) the firefly luciferase reporter gene, (iii) the ubiquitin gene, (iv) the neomycin phosphotransferase gene (neo), (v) the IRES from encephalomyocarditis virus (EMCV), and (vi) HCV NS3 to NS5B genes that harbor cell culture adaptive mutations (E1202G, T12801, K1846T) and the HCV 3′UTR.
These cell lines were maintained at 37° C., 5% CO2, 100% relative humidity in DMEM (Cat#11965-084, Invitrogen), with 10% fetal calf serum (“FCS”, Invitrogen), 1% non-essential amino acids (Invitrogen), 1% of Glutamax (Invitrogen), 1% of 1 OOX penicillin/streptomycin (Cat#15140-122, Invitrogen) and Geneticin (Cat#10131-027, Invitrogen) at 0.75 mg/ml or 0.5 mg/ml for 11-7 and Huh-luc/neo-ET cells, respectively.
EC50 values of single agent compounds and combinations were determined by HCV RNA detection using quantitative RT-PCR, according to the manufacturer's instructions, with a TAQMAN® One-Step RT-PCR Master Mix Reagents Kit (Cat# AB 4309169, Applied Biosystems) on an ABI Model 7500 thermocycler. The TaqMan primers used for detecting and quantifying HCV RNA were obtained from Integrated DNA Technologies. HCV RNA was normalized to GAPDH RNA levels in drug-treated cells, which is detected and quantified using the Human GAPDH Endogenous Control Mix (Applied Biosystems, AB 4310884E). Total cellular RNA is purified from 96-well plates using the RNAqueous 96 kit (Ambion, Cat# AM1812). Chemical agent cytotoxicity is evaluated using an MTS assay according to the manufacturer's directions (Promega).
The compounds of the present invention can be effective against the HCV 1b genotype. It should also be understood that the compounds of the present invention can inhibit multiple genotypes of HCV. In one embodiment compound of the present invention are active against the 1a, 1b, 2a, 2b, 3a, 4a, and 5a genotypes. […] EC50 ranges against HCV 1b are as follows: A>10 nM; B1-10 nM; C<1 nM.

| SMILES | EC50 |
| --- | --- |
| COC(=O)NN(C(=O)N1CCC[C@H]1c1ncc(-c2ccc(-c3ccc(-c4cnc([C@@H]5CCCN5C(=O)N(NC(=O)OC)C(C)C)[nH]4)cc3)cc2)[nH]1)C(C)C [Example 373] | < 1 nM |
| CCN(NC(=O)OC)C(=O)N1CCC[C@H]1c1ncc(-c2ccc(-c3ccc(-c4cnc([C@@H]5CCCN5C(=O)[C@@H](NC(=O)OC)C(C)C)[nH]4)cc3)cc2)[nH]1 [Example 375] | < 1 nM |
| COC(=O)N[C@H](C(=O)N1CCC[C@H]1c1ncc(-c2ccc3cc(-c4ccc5[nH]c(N6CCCN6C(=O)[C@@H](NC(=O)OC)C(C)C)nc5c4)ccc3c2)[nH]1)C(C)C [Example 368] | < 1 nM |
| COC(=O)N[C@H](C(=O)N1CCC[C@H]1c1ncc(-c2ccc(-c3ccc(-c4cnc([C@@H]5CCCN5C(=O)N(NC(=O)OC)C(C)C)[nH]4)cc3)cc2)[nH]1)C(C)C [Example 374] | < 1 nM |
| CCCN(NC(=O)OC)C(=O)N1CCC[C@H]1c1ncc(-c2ccc(C#Cc3ccc4nc([C@@H]5CCCN5C(=O)[C@@H](NC(=O)OC)C(C)C)[nH]c4c3)cc2)[nH]1 [Example 371] | < 1 nM |
| COC(=O)N[C@H](C(=O)N1CCC[C@H]1c1nc2ccc(C#Cc3ccc(-c4cnc([C@@H]5CCCN5C(=O)N(CC(C)C)NC(=O)OC)[nH]4)cc3)cc2[nH]1)C(C)C [Example 372] | < 1 nM |
| CCN(NC(=O)OC)C(=O)N1CCC[C@H]1c1ncc(-c2ccc(C#Cc3ccc4nc([C@@H]5CCCN5C(=O)[C@@H](NC(=O)OC)C(C)C)[nH]c4c3)cc2)[nH]1 [Example 370] | < 1 nM |
| COC(=O)N[C@H](C(=O)N1CCC[C@H]1c1nc2ccc(C#Cc3ccc(-c4cnc([C@@H]5CCCN5C(=O)N(NC(=O)OC)C(C)C)[nH]4)cc3)cc2[nH]1)C(C)C [Example 369] | < 1 nM |
